{"source": "paper PMC7719179", "about": "“Small molecule inhibition of Dynamin-dependent endocytosis targets multiple niche signals and impairs leukemia stem cells” (Nature Communications, 2020)", "key": {"[1]": {"tested_on": "AML01-307 and AML18 patient-derived xenografts", "test": "Survival (Kaplan-Meier) and leukemia growth delay in AML01-307 and AML18 xenograft recipients", "format": "in vivo, human", "conditions": "PDX AML01-307", "protocol": "Patient-derived xenograft models were established as previously described[97],[98]. All experiments were pre-approved by the Human Research Ethics Committee of the University of New South Wales (UNSW), the UNSW Animal Care and Ethics Committee, the Alfred Health Human Ethics Committee and the AMREP Animal Ethics Committee. For transplantation assays, 10^6 splenocytes harvested from successfully engrafted primary human ETP-ALL or T-ALL xenografts were injected into nonobese diabetic/severe combined immunodeficient (NOD.Cg-Prkdc^scid, also termed NOD/SCID) or NOD/SCID/Il2rg^tm1wjl/SzJ (NSG) mice[99]. Moreover, 1.5 × 10^6 cells splenocytes harvested from successfully engrafted patient-derived AML xenografts were injected into nonobese diabetic/severe immunodeficient (NOD.Cg-Rag1^tm1MomIl2rg^tm1wjl/SzJ, also termed NRG) mice expressing human IL-3, human GM-CSF and human SCF from the SGM3 triple transgene (NRGS)[100]. Engraftment into recipients was monitored by FACS analysis of peripheral blood as previously described. […] Both males and females were used. […] Kaplan–Meier survival and statistical analyses were performed using GraphPad Prism. 6.0 software (GraphPad Software, Inc.). […]"}, "[2]": {"tested_on": "leukemogenicity of pre-LSCs", "test": "Time to leukemia of recipients injected with thymocytes from treated Lmo2^Tg mice", "format": "in vivo, mouse", "conditions": "for Time to leukemia / Time to leukemia (days): * non-leukemic at endpoint", "protocol": "Fold expansion was calculated by dividing the absolute output number of donor-derived DN3a cells harvested at the experimental endpoint by the respective number of DN3a thymocytes injected in each recipient. […] Leukemia-propagating cell frequency was calculated by applying Poisson statistics using the ELDA: Extreme Limiting Dilution Analysis software (Walter and Eliza Hall Institute Bioinformatics, Parkville VIC, Australia)[96]. Limiting dilution transplantations were performed independently from any other transplantation assays, using thymocytes from three different Lmo2^Tg mice for each cohort. […] Log-rank (Mantel -Cox)"}, "[3]": {"test": "Relative viability of human CD34+ hematopoietic stem and progenitors, 48 h", "format": "cell-based", "parameters": "Relative % viable cells: dose or concentration left out as unconfirmed", "protocol": "(§1) Supplementary Figure 7. Efficacy of Dynole 34-2 for human T-ALL. a, b, Relative viability (%) of patient-derived (a ) ETP- ALL1 and (b) T-ALL 2 xenografts treated with increasing concentration of Dynole 34-2 for 48 hours. Viability was normalized to vehicle-treated cells with experiments performed in duplicates. Human CD34-positive (CD34+) hematopoietic stem and progenitors from healthy donors (N=3) were used as controls. […]"}, "[4]": {"tested_on": "Human CD34-positive (CD34+) hematopoietic stem and progenitors", "test": "Relative viability of human CD34+ hematopoietic stem and progenitors, 48 h", "format": "cell-based", "parameters": "Relative % viable cells: dose or concentration left out as unconfirmed", "conditions": "48 h", "protocol": "as §1"}, "[5]": {"tested_on": "IL-7R internalization in Ba/F3-IL7R cells", "test": "Colocalization of IL-7R with clathrin and Rab5 after IL-7 stimulation (immunofluorescence)", "format": "cell-based, murine", "conditions": "Ba/F3-IL7R cells after IL-7 stimulation, vs vehicle; result in words", "protocol": "For dynamic analysis of IL-7R internalization, 1 × 10^5 Ba/F3-IL-7R cells were incubated with Phycoerythrin (PE)-conjugated α-CD127 (A7R34, BioLegend) for 30 min on ice, washed twice in cold PBS 1×, resuspended in serum-free Dulbecco’s modified Eagle’s medium (DMEM) and stimulated with 50 ng/mL IL-7 at 37 °C for the indicated intervals. Cells were fixed, permeabilized and incubated with either α-clathrin (ab21679, Abcam Australia) or α-Rab5 (ab18211, Abcam Australia), as previously described. Washed cells were incubated in permeabilization buffer with donkey Alexa Fluor 488-conjugated anti-rabbit secondary antibody (A-21206, Molecular Probes, Life Technologies) for 1 h on ice. Cells were washed, incubated with 1 ng/mL 4′,6-diamidino-2-phenylindole for 15 min, washed twice and mounted using Mowiol mounting medium (81381, Sigma-Aldrich Pty Ltd, Castle Hill, NSW). For each independent experiment, at least 50 different fields of view were collected for blinded quantification, for each time point. All images were acquired using a Nikon A1r Plus SI inverted confocal microscope (Nikon Australia, Rhodes, NSW) using a Plan Apo ×60 oil objective."}, "[6]": {"tested_on": "IL-3R, GM-CSFR and c-Kit endocytosis in Ba/F3-SGM3R cells", "test": "Surface expression of IL-3R, GM-CSFR and KIT in Ba/F3-SGM3R cells", "format": "cell-based, murine", "conditions": "result in words", "source_text": "The coding sequence of murine Csf2ra (gm-csfr) and c-Kit was amplified by PCR from cDNA of bone marrow mononuclear cells of a healthy WT donor using primers mGmcsfr-FL-F and mGmcsfr-FL-R, and mKit-FL-F and mKit-FL-R, respectively (Table 3). The PCR product was cloned into the XhoI and EcoRI sites of pMIG-R1, which was kindly given by Pear et al.[82],[83]. Ba/F3 cells were infected with pMIG-R1/Gmcsfr retroviral supernatants produced in 293T cells, transduced cells were sorted with a BD Influx (BD Australia) and selected by culture in medium supplemented with 25 ng/mL rmGm-csf (#305-03, Pepro Tech, Rocky Hill NJ, USA) for 7 days. Finally, Ba/F3 cells stably expressing Gm-csfr were infected with pMIG-R1/Kit retroviral supernatants produced in 293T cells to generate Ba/F3-SMG3R cells, which were sorted with a BD Influx and maintained in medium supplemented with 5 ng/mL rmIL-3 (#213-13, Pepro Tech, Rocky Hill NJ, USA).\nMean fluorescence intensity (MFI) ± SD of n=3 biological replicates are shown (*P<0.05, ** P<0.01, ***P<0.001 compared to vehicle) . Basal levels of pStat5 and pErk were measured in unstimulated BaF3-SGM3 R cells (white bar). c, Correlative studies between the relative levels of pStat5 (left) or pErk (right) and the relative survival of BaF3-SGM3R cells treated Dynole 34-2 . […]\nin BaF3-SGM3R cells treated with Dynole 34-2 . […] Baseline measured in unstimulated BaF3-SGM3 R cells"}}, "note": "“And” between values parts separate entries of the source, which are not always exact repeats. Identical values can stand only once. Like-named read-outs stand apart in the source and are kept apart here.", "data": [{"smiles": "CCCCCCCCNC(=O)C(C#N)=Cc1cn(CCCN(C)C)c2ccccc12", "note": "[Dynole 34-2, 2-Cyano-N-octyl-3-(1-(3-dimethylaminopropyl)-1H-indol-3-yl)-acrylamide]", "values": [{"measurement": "Time to leukemia", "setting": "[1]", "value": "7 weeks and 8.71 weeks and 8.57 weeks and 7.57 weeks and 8.43 weeks"}, {"measurement": "Time to leukemia", "setting": "[2]; Supplementary Figure 3h", "value": "138 days and 132 days and 116 days and 149 days"}, {"measurement": "Time to leukemia (days)", "setting": "[2]; Supplementary Figure 3h", "value": "> 210* days"}, {"measurement": "Time to leukemia", "setting": "[2]; Supplementary Figure 4d", "value": "170 days and 151 days and 119 days and 142 days"}, {"measurement": "Time to leukemia (days)", "setting": "[2]; Supplementary Figure 4d", "value": "> 210* days"}, {"measurement": "leukemogenic potential of pre-LSCs / progression to leukemia in recipients", "setting": "[2]; recipients of thymocytes from treated Lmo2^Tg mice, result in words", "value": "delayed progression to leukemia"}, {"measurement": "viability at 48 h, 0.04 mM", "setting": "[3]; CD34, dose 0.04 mM, read-out: Relative % viable cells", "value": 99.5, "unit": "%"}, {"measurement": "viability at 48 h, 0.2 mM", "setting": "[3]; CD34, dose 0.2 mM, read-out: Relative % viable cells", "value": 99.5, "unit": "%"}, {"measurement": "viability at 48 h, 0.04 mM", "setting": "[3]; Relative % viable cells", "value": 99.4, "unit": "%"}, {"measurement": "viability at 48 h, 0.2 mM", "setting": "[3]; Relative % viable cells", "value": 98.9, "unit": "%"}, {"measurement": "Relative % viable cells", "setting": "[4]", "value": 98.8, "unit": "%"}, {"measurement": "colocalization of IL-7R and clathrin", "setting": "[5]", "value": "no significant difference"}, {"measurement": "colocalization of IL-7R with Rab5", "setting": "[5]", "value": "markedly reduced"}, {"measurement": "endocytosis of c-Kit, GM-CSFR and IL-3R", "setting": "[6]", "value": "impaired endocytosis"}]}]}
